Source: patent US20100172991A1, “Extended Release Formulation and Methods of Treating Adrenergic Dysregulation” (priority 2007, published 2010)
Values after ≈ are worked out from the molar mass of the structure shown. Read-outs that look alike come from different tables or passages of the source.

What was measured:
[1] = tested on: systolic and diastolic blood pressure; experiment: animal or person
Method: Mean baseline ABPM data for the three treatment groups were compared with mean data obtained on Day 26 (last day of treatment) and on Days 27 and 28. A more detailed PK/PD analysis was conducted by using the individual patient ABPM data to compare the blood pressure profile at Baseline and on Day 26 of treatment. The daytime (0- to 12-hour) intervals were used in the analysis, since pharmacokinetic data were collected on Day 25, over the daytime 12-hour dosing interval at steady state. In order to investigate the maintenance of effect at the tail end of the inter-dosing interval, differences between the SBP, DBP, and HR values at Baseline and the last two hours in the inter-dosing interval (Hours 11 and 12) on Day 26 were calculated for each patient. Paired t-tests were performed to test the significance of these differences between Baseline and the last two measuring times. The approach taken to quantify the effects of clonidine on blood pressure was to calculate the difference between the areas under the BP vs. time curves (AUCBP) at Baseline and on Day 26. These values were used to relate the pharmacodynamic effect to dose, as well as to conduct the PK/PD analyses.
Pharmacokinetic-pharmacodynamic modeling was conducted using the blood pressure response data and the Cmax, Cmin and AUCτ values at Day 25 of dosing. […] The data in Table 8 summarize the PK/PD parameters from the sigmoidal Emax model.

[2] = traditional oral formulation; cited from earlier work
[3] = sigmoidal Emax model, Day 25 exposure

Compound: Clc1cccc(Cl)c1NC1=NCCN1 [clonidine, 2,6-dichloro-N-2-imidazolidinylidene benzeneamine]
- EC50 ([1]; Homo sapiens, 600 h, read-out: EC50, Diastolic BP vs Cmax): 0.431 ng/mL (≈ 1.87 nM)
- EC50 ([1]; Homo sapiens, 600 h, read-out: EC50, Diastolic BP vs Cmin): 0.341 ng/mL (≈ 1.48 nM)
- EC50 ([1]; Homo sapiens, 600 h, read-out: EC50, Systolic BP vs Cmax): 0.458 ng/mL (≈ 1.99 nM)
- EC50 ([1]; Homo sapiens, 600 h, read-out: EC50, Systolic BP vs Cmin): 0.359 ng/mL (≈ 1.56 nM)
- EC90 ([1]; Homo sapiens, 600 h, read-out: EC90, Diastolic BP vs AUCτ): 5.92 ng/mL (≈ 25.7 nM)
- Emax (ΔBP), Diastolic BP vs AUCτ [1, 3]: 16.8
- Emax (ΔBP), Diastolic BP vs Cmax [1, 3]: 16.7
- Emax (ΔBP), Diastolic BP vs Cmin [1, 3]: 16.8
- Emax (ΔBP), Systolic BP vs AUCτ [1, 3]: 24.3
- Emax (ΔBP), Systolic BP vs Cmax [1, 3]: 24.3
- Emax (ΔBP), Systolic BP vs Cmin [1, 3]: 24.4
- biological half-life [2]: four to six
